{"source": "patent US20110250294A1", "about": "“COMBINATIONS OF PRESERVATIVE COMPOSITIONS FOR OPHTHALMIC FORMULATIONS” (ALLERGAN, INC., priority 2010, published 2011)", "tested_on": "S. aureus, P. aeruginosa, c. albicans, E. coli and/or A. niger", "assay": "abbreviated preservative efficacy test against Ph Eur-A (EP-A) and Ph Eur-B (EP-B) criteria", "type": "cell-based", "details": "20 ppm BAK alone in ophthalmic solution", "experimental": "Each of these formulations is tested by performing an abbreviated preservative efficacy test using test organisms S. aureus, P. aeruginosa, c. albicans, E. coli and/or A. niger. The formulations are tested against United States Preservative Efficacy Test (USP), European Efficacy Test-A (EP-A) and European Efficacy Test-B (EP-B) criteria as indicated. Ten (10) ml of each formulation is challenged with approximately 10^5 cfu/ml of test organism. At appropriate time intervals, the amount of bacterial and fungal survivors are assayed using Dey Engley broth (DE) as the neutralizer media. DE, along with filtration, is sufficient at neutralizing the antimicrobial agents in the compositions. One (1) ml of each sample is diluted into nine (9) ml of DE. One (1) ml of the 1:10 dilution is filtered through a 0.45 µm filter and washed with 100 ml of a saline/polysorbate 80 solution. After washing the filtrate a second time with 100 ml of saline/polysorbate 80 solution, the filtrate is placed onto a TSA plate for bacteria and SAB for fungi.", "data": [{"substance": "benzalkonium chloride [BAK]", "values": [{"measurement": "Ph Eur-B & A criteria (pass/fail)", "value": "failed"}]}]}
